How the values were obtained:
Format in all cases: cell-based
[1] = target: T1, PAR2 (HT-29 cells) (Homo sapiens, UniProt P55085); assay: Ca FLIPR TETRA assay, ANTAGONIST mode, activator 8 μM SLIGKV; conditions: HT-29 cells, activator 8 μM SLIGKV
T1 construct: host or cells: HT-29
T1 sequence (P55085 26-397): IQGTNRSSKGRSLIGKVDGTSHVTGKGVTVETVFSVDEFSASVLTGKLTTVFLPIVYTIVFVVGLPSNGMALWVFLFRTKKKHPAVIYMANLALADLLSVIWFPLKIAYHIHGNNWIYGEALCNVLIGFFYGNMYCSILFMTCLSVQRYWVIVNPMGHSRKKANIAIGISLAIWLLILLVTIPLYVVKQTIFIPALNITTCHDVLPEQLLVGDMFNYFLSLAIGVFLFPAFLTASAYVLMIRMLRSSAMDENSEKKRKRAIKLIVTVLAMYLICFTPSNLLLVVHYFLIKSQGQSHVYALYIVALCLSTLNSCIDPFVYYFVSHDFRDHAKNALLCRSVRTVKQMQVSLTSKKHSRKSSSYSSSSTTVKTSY
Method in brief: (§1)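 HT-29 cells in 1% FBS/McCoy's overnight, loaded with FLIPR Calcium 5 dye (45 min 37 °C, 15 min r.t.); compounds added and read for intrinsic Ca2+ activation, then after 30 min r.t. stimulated with fixed activator: 8 μM SLIGKV, 0.6 μM UTP, 1 U/mL thrombin or 3.1 U/mL trypsin (final).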

[2] = tested on: Thrombin-stimulated Ca2+ response in HT-29 cells; assay: Ca FLIPR TETRA assay, ANTAGONIST mode, activator 1 U/mL Thrombin; conditions: HT-29 cells, activator 1 U/mL Thrombin
Method in brief: as §1

[3] = target: T1, PAR2 (HT-29 cells); assay: Ca FLIPR TETRA assay, ANTAGONIST mode, activator 3.1 U/mL trypsin; conditions: HT-29 cells, activator 3.1 U/mL trypsin
Method in brief: as §1

[4] = tested on: UTP-stimulated Ca2+ response in HT-29 cells; assay: Ca FLIPR TETRA assay, ANTAGONIST mode, activator 0.6 μM UTP; conditions: for IC50: HT-29 cells, activator 0.6 μM UTP
Method in brief: as §1

[5] = maximal antagonist concentration per Method (A: 0.1, 1 or 2 μM; B: 50 μM)
[6] = Method A: maximal concentration of antagonist 0.1, 1 or 2 μM

IC50 [1, 5] | IC50 ([2]; Homo sapiens) | IC50 [3, 5] | IC50 ([4]; Homo sapiens) | IC50 [1, 6] | IC50 [2] | IC50 [3, 6] | IC50 [4] | SMILES | inhibition at 50 µM ([4]; Homo sapiens, HT-29, @ 50 (μM))
5.6 nM | > 1000 nM | 6.6 nM | > 1000 nM |  |  |  |  | Cc1cc(C(=O)N2CCN(C(=O)c3cc4nc(-c5ccc(C(F)(F)F)cc5)cc(C(C)(C)C)c4o3)C(C)(C)C2)[nH]n1 [Example I-171] | 
 |  |  |  | 0.1 nM | 1800 nM | 0.1 nM | 1300 nM | CC(C)(C)c1cc(-c2ccc(Cl)cc2)nc2cc(C(=O)N3CCC(c4nc(C(=O)O)cs4)CC3(C)C)oc12 (stereo not drawn) [Example I-426] | 
 | 1600 nM |  | 1250 nM | 0.6 nM |  | 0.8 nM |  | Cc1nc(N2CCN(C(=O)c3cc4nc(-c5ccc(Cl)cc5)cc(C(C)(C)C)c4o3)C(C)(C)C2)ncc1C(=O)O [Example I-462] | 
 | > 1010 nM |  | 1010 nM | 0.4 nM |  | 0.5 nM |  | Cc1cc(N2CCN(C(=O)c3cc4nc(C5CCC(C)(C)CC5)cc(C(C)(C)C)c4o3)C(C)(C)C2)ncc1C(=O)O [Example I-398] | 
2.7 nM | > 2000 nM | 1.8 nM | > 2000 nM |  |  |  |  | [2H]C([2H])([2H])N1CCN(C(=O)c2cc3nc(-c4ccc(Cl)cc4)cc(C(C)(C)C)c3o2)C(C)(C)C1=O [Example I-240] | 
 | > 2000 nM |  | > 2000 nM | 0.2 nM |  | 0.3 nM |  | Cc1ccc(N2CCN(C(=O)c3cc4nc(-c5ccc(Cl)c(F)c5)cc(C(C)(C)C)c4o3)C(C)(C)C2)nc1C(=O)O [Example I-487] | 
 | > 2000 nM |  | > 2000 nM | 14 nM |  | 16 nM |  | Cc1ccc(N2CCN(C(=O)c3cc4nc(-c5ccc(Cl)c(F)c5)cc(C(C)(C)C)c4o3)C(C)(C)C2=O)nn1 [Example I-355] | 
 | > 2000 nM |  | > 2000 nM | 1100 nM |  | 1400 nM |  | CNC1CCN(C(=O)c2cc3nc(-c4ccc(Cl)c(F)c4)cc(C(C)(C)C)c3o2)C(C)(C)C1 (stereo not drawn) [Example I-549] | 
 | 1150 nM |  | 995 nM | 0.2 nM |  | 0.4 nM |  | Cc1nc(N2CCN(C(=O)c3cc4nc(-c5ccc(Cl)c(F)c5)cc(C(C)(C)C)c4o3)C(C)(C)C2)ncc1C(=O)O [Example I-466] | 
210 nM | 8400 nM | 190 nM | 12000 nM |  |  |  |  | CCc1cc(-c2ccc(F)cc2)nc2cc(C(=O)N3CCN(C(=O)C(C)(C)O)CC3(C)C)oc12 [Example I-4] | 
 | > 1630 nM |  | > 1630 nM | 0.2 nM |  | 0.4 nM |  | CC(C)(CC(=O)N1CCN(C(=O)c2cc3nc(-c4ccc(Cl)c(F)c4)cc(C(C)(C)C)c3o2)C(C)(C)C1)C(=O)O [Example I-417] | 
 | > 2000 nM |  | > 2000 nM | 12 nM |  | 19 nM |  | CC(C)(C)c1cc(-c2ccc(Cl)cc2)nc2cc(C(=O)N3CCN(c4ncc(C(=O)O)cn4)C(=O)C3(C)C)oc12 [Example I-369] | 
1.4 nM | > 50000 nM | 2.6 nM |  |  |  |  |  | CC(C)c1cc(-c2ccc(F)cc2)nc2cc(C(=O)N3CCN(C(=O)CC(C)(C)C)CC3(C)C)oc12 [Example I-21] | 59%
 | > 2000 nM |  | > 2000 nM | 67 nM |  | 38 nM |  | CC(C)(C)c1cc(-c2ccc(Cl)c(F)c2)nc2cc(C(=O)N3CCN(c4ccnnc4)CC3(C)C)oc12 [Example I-348] | 
0.1 nM | > 2000 nM | 0.3 nM | > 2000 nM |  |  |  |  | CC(C)(C)c1cc(-c2ccc(Cl)c(F)c2)nc2cc(C(=O)N3CCN(c4nc(C(=O)O)co4)CC3(C)C)oc12 [Example I-289] | 
2.6 nM | > 2000 nM | 3.9 nM | > 2000 nM |  |  |  |  | Cc1ccc(N2CCN(C(=O)c3cc4nc(-c5ccc(Cl)cc5)cc(C(C)(C)C)c4o3)C(C)(C)C2)nn1 [Example I-263] | 
 |  |  |  | 0.1 nM | > 2000 nM | 0.1 nM | > 2000 nM | CC(C)(C)c1cc(-c2ccc(Cl)c(F)c2)nc2cc(C(=O)N3CCN(c4nc(C(=O)O)ccc4F)CC3(C)C)oc12 [Example I-501] | 
 | > 1010 nM |  | 860 nM | 0.4 nM |  | 0.3 nM |  | CC(C)(C)c1cc(-c2ccc(Cl)cc2)nc2cc(C(=O)N3CCN(c4ncc(C(=O)O)cc4F)CC3(C)C)oc12 [Example I-393] | 
 |  |  |  | 0.7 nM | > 2000 nM | 0.9 nM | > 2000 nM | Cc1oc(C2CCN(C(=O)c3cc4nc(-c5ccc(Cl)cc5)cc(C(C)(C)C)c4o3)C(C)(C)C2)nc1C(=O)O (stereo not drawn) [Example I-431] | 
19 nM | > 2000 nM | 27 nM | > 2000 nM |  |  |  |  | CC(C)(C)c1cc(-c2cccc(Cl)c2)nc2cc(C(=O)N3CCNC(=O)C3(C)C)oc12 [Example I-244] | 
7.4 nM | > 2000 nM | 7.8 nM | > 2000 nM |  |  |  |  | CC(C)(C)c1cc(-c2ccc(Cl)c(F)c2)nc2cc(C(=O)N3CCN(c4ccccn4)CC3(C)C)oc12 [Example I-271] | 

Further lines, the molecule ahead of its results:

SMILES | IC50 [1, 5] | IC50 ([2]; Homo sapiens) | IC50 [3, 5] | IC50 ([4]; Homo sapiens) | IC50 [1, 6] | IC50 [2] | IC50 [3, 6] | IC50 [4] | inhibition at 50 µM ([4]; Homo sapiens, HT-29, @ 50 (μM))
CC(C)(C)c1cc(-c2ccc(Cl)c(F)c2)nc2cc(C(=O)N3CCC(C(=O)[C@H]4CC[C@@](C)(C(=O)O)CC4)CC3(C)C)oc12 (stereo partly drawn) [Example I-422] |  |  |  |  | 0.2 nM | 2000 nM | 0.3 nM | 1500 nM | 
CC1(c2cc(-c3ccc(F)cc3)nc3cc(C(=O)N4CCN(C(=O)[C@H](O)C5CCCCC5)CC4(C)C)oc23)CC1 [Example I-40] | 5 nM | 37000 nM | 7.3 nM | 30000 nM |  |  |  |  | 
CC(Oc1ccccc1)C(=O)N1CCN(C(=O)c2cc3nc(-c4ccc(F)cc4)cc(C(C)C)c3o2)C(C)(C)C1 (stereo not drawn) [Example I-67] | 5.2 nM | > 50000 nM | 7.4 nM | > 50000 nM |  |  |  |  | 
CC1(C)CCC(c2cc(C(C)(C)C)c3oc(C(=O)N4CCNC(=O)C4(C)C)cc3n2)CC1 [Example I-217, 4-[7-tert-butyl-5-(4,4-dimethylcyclohexyl)furo[3,2-b]pyridine-2-carbonyl]-3,3-dimethyl-piperazin-2-one] | 13 nM | > 2000 nM | 22 nM | > 2000 nM |  |  |  |  | 
Cc1cc(C(=O)N2CCN(C(=O)c3cc4nc(C5CCC(C)(C)CC5)cc(C(C)(C)C)c4o3)C(C)(C)C2)[nH]n1 [Example I-523] |  | > 2000 nM |  | > 2000 nM | 2 nM |  | 1.9 nM |  | 
CC(C)(C)c1cc(N2CCC[C@H]2C(F)(F)F)nc2cc(C(=O)N3CCN(C(=O)[C@H]4C[C@](C)(O)C4)CC3(C)C)oc12 [Example I-434] |  | > 2000 nM |  | > 2000 nM | 26 nM |  | 75 nM |  | 
C[C@H]1CN(C(=O)c2cc3nc(-c4ccc(F)cc4)cc(C4(C)CC4)c3o2)CCN1C(=O)C1CCOCC1 [Example I-120] | 360 nM | 13000 nM | 1300 nM | 13000 nM |  |  |  |  | 
CCC(C)c1cc(-c2ccc(F)cc2)nc2cc(C(=O)N3CCNC(=O)C3(C)C)oc12 (stereo not drawn) [Example I-202] | 5 nM | > 1000 nM | 5 nM | > 1000 nM |  |  |  |  | 
CO[C@H](C)C(=O)N1CCN(C(=O)c2cc3nc(-c4ccc(F)cc4)cc(C(C)C)c3o2)C(C)(C)C1 [Example I-63] | 62 nM | 18000 nM | 110 nM | 19000 nM |  |  |  |  | 
CC1(c2cc(-c3ccc(F)cc3)nc3cc(C(=O)N4CCN(C(=O)C5CCOCC5)CC4(C)C)oc23)CC1 [Example I-54] | 4.5 nM | 9600 nM | 6.3 nM | 7900 nM |  |  |  |  | 
Cc1cc(C(=O)N2CCN(C(=O)c3cc4nc(C5CC6(CCC6)C5)cc(C(C)(C)C)c4o3)C(C)(C)C2)[nH]n1 [Example I-294] | 1.5 nM | > 2000 nM | 3.6 nM | > 2000 nM |  |  |  |  | 
CC(C)c1cc(-c2ccc(F)cc2)nc2cc(C(=O)N3CCN(C(=O)[C@@H](C)O)C[C@H]3C)oc12 [Example I-98] | 5300 nM | 18000 nM | 7000 nM | 20000 nM |  |  |  |  | 
CC1(c2cc(-c3ccc(F)cc3)nc3cc(C(=O)N4CCN(C(=O)C5(O)CCOCC5)CC4(C)C)oc23)CC1 [Example I-57] | 53 nM | 6800 nM | 77 nM | 8600 nM |  |  |  |  | 
CC1(C(=O)N2CCN(C(=O)c3cc4nc(-c5ccc(F)cc5)cc(C5(C)CC5)c4o3)C(C)(C)C2)CC1 [Example I-45] | 4 nM | 20000 nM | 4.1 nM | 4700 nM |  |  |  |  | 
CC(C)(C)c1cc(C2CC3(CCC3)C2)nc2cc(C(=O)N3CCN(C(=O)[C@H]4CC[C@](C)(C(=O)O)CC4)CC3(C)C)oc12 [Example I-298] |  | 510 nM |  | 510 nM | 14 nM |  | 18 nM |  | 

From US20180057505A1, “BICYCLIC HETEROARYL COMPOUNDS USEFUL AS INHIBITORS OF THE PAR-2 SIGNALING PATHWAY” (VERTEX PHARMACEUTICALS INCORPORATED, priority 2015, published 2018)
